Results as given in US10231985B2, “Compounds and compositions comprising such compounds for the prevention or treatment of dyslipidaemias” (CENTRE NATIONAL DE LA RECHERCHE SCIENTIFIQUE, priority 2013, dated 2019).

Legend:
Type in all cases: cell-based, Saccharomyces cerevisiae
[1] = tested on: QM strain (cells not synthesizing triglycerides); assay: Toxicity test on QM strain (growth inhibition halos); conditions: 5 μl drops on agar, after three days
Description: Drops (5 μl) of OAG, LPA or oleic acid were deposited, from stock solutions at the indicated concentrations, on the surface of an agar medium over which the QM strain had been spread beforehand. […] These halos are, however, not observed in the presence of LPA or of OAG.
In parallel, wild-type (WT) and quadruple mutant (QM) strains are grown, under aerobic conditions, with shaking and at 28° C., in liquid YPG medium before seeding 3500 cells per cm^2 of YPG+2% agar (w/v). Following this transfer to solid medium, 1 μl drops of 1, 10 and 100 mM solutions of the various compounds in DMSO or EtOH are deposited on the agar surface. Separately, DMSO and EtOH are also deposited in order to evaluate the intrinsic toxicity of these two solvents. After 3 days of culture at 28° C., the toxicity of the compounds tested is evaluated by comparing the growth inhibition halo diameters obtained for the depositions of pure solvent with those of the depositions of the various concentrations of the compounds tested. Unlike the WT strain, the QM strain is incapable of buffering excess exogenous oleic acid in the form of neutral lipids (triglycerides (TG) or esterified sterols (ES)) in lipid droplets.

[2] = tested on: unfolded protein response (UPR); assay: Test of UPR triggering (4xUPRE-lacZ, β-galactosidase activity) in hem1Δ yeast; conditions: 200 μM, liquid medium inducing SFA accumulation
Description: A plasmid construction bearing a fusion gene, corresponding to the coding sequence of the lacZ gene placed under the control of an artificial promoter containing four UPR elements (UPRE), was introduced into a hem1Δ yeast strain, as described by Pineau et al. (2009). During UPR induction, the transcription factor Hac1p/XBP1p is activated and binds to the fusion gene UPRE, leading to the transcription of the lacZ gene. As lacZ encodes β-galactosidase, the level of UPR induction is thus measured by detecting the corresponding enzyme activity. The hem1Δ yeast strain was grown in liquid medium inducing SFA accumulation with no other addition (0), or in the same medium supplemented with 200 μM oleic acid, OAG or LPA, as indicated.
The hem1Δ strain transformed by the plasmid pPW344 [2μ URA3 4×UPRE-lacZ (Patil et al., 2004)] is grown in liquid medium (YPG^A, YPG, or YPG+200 μM compound to be tested), under aerobic conditions, with shaking at 28° C. for 7 hours, from an initial cell concentration of 2×10^6 cells/ml. At the conclusion of the culture, 10^8 cells are collected in order to quantify the β-galactosidase (β-gal) activity resulting from the expression of the lacZ transgene (in the case of UPR activation). […] For each sample, β-gal activity (U) is calculated using the formula U=(1000×[OD420 nm−(1.75×OD550 nm)])/(t×V×OD600 nm), expressed in arbitrary units.

[3] = tested on: phospholipids of the cellular membranes (hem1Δ strain); assay: Fatty acid content of cellular phospholipids (lipid extraction, ESI-MS)
Description: The hem1Δ strain is grown in liquid medium (YPG^A, YPG^+, or YPG^++200 μM compound to be tested) under aerobic conditions, with shaking and at 28° C. for 7 hours, from an initial cell concentration of 2×10^6 cells/ml. At the conclusion of the culture, 10^8 cells are collected in order to carry out a total lipid extraction. After having suspended the cells in 1 ml of distilled water at 4° C., 500 μl of glass beads (Ø 0.6 mm) are added and the whole then undergoes 3 sequences of 20 seconds at 5000 rpm in a shaker (the tubes are kept on ice between each of the 3 sequences). The cell lysate then obtained, supplemented with bead-washing solution (1 ml), is then transferred to a 40 ml glass tube (Corex™) before carrying out the lipid extraction using a 2:1 (v/v) methanol:chloroform ratio. First, 6 ml of methanol is added and the whole is vortexed for 30 seconds and then incubated for 15 minutes at 65° C. Once the mixture cools to room temperature, 3 ml of chloroform is added and then the whole is vortexed again for 30 seconds before allowing the extraction to proceed for 16 hours. Later, the sample is centrifuged for 12 minutes at 10000 g before transferring the supernatant to a new Corex™ tube. After adding 2 ml of chloroform and then 4 ml of distilled water, the whole is vortexed for 30 seconds and then centrifuged for 8 minutes at 3000 g. After removing the resulting upper phase, the lower organic phase is collected in a glass hemolysis tube. Finally, the solvent is evaporated under a stream of nitrogen at 80° C. in order to obtain the total cellular lipid samples.
The total cellular lipid samples are resuspended in 1 ml of dichloromethane while being vortexed for 30 seconds. The whole is deposited on a silica column (BOND ELUT-SI, 100 mg 1 ml) preconditioned successively with 3 ml of methanol and then 2 ml of dichloromethane. The fraction retained by the column is then washed successively with 2 ml of dichloromethane and then 3 ml of acetone. Finally, 2 ml of a 50:45:5 (v/v/v) chloroform/methanol/water mixture is deposited on the column and the phospholipids thus eluted are collected in a glass hemolysis tube. The solvent is evaporated under nitrogen at 80° C. in order to obtain the cellular phospholipid samples.
Once resuspended in 100 μl of the mixture Mix^− (2:1:1 (v/v/v) isopropanol/acetonitrile/water+1% (v/v) triethylamine) or the mixture Mix^+ (2:1:1 (v/v/v) isopropanol/acetonitrile/water+1% (v/v) formic acid), the samples are analyzed by electrospray ionization mass spectrometry (ESI-MS) in negative or positive mode, respectively, and the results obtained are used to analyze the fatty acid content of the various phospholipid species.

| SMILES | Growth inhibition halos on QM strain [1] | UPR induction level (β-galactosidase activity) [2] | Effect on fatty acid composition of membrane phospholipids [3] |
| --- | --- | --- | --- |
| CCCCCCCC/C=C\CCCCCCCC(=O)OC[C@@H](O)COP(=O)(O)O [LPA, 1-oleoyl-sn-glycerol-3-phosphate] | not observed | reduce the unfolded protein response (UPR) | act directly on lipid content |
| CCCCCCCC/C=C\CCCCCCCC(=O)OC[C@H](CO)OC(C)=O [OAG, 1-oleoyl-2-acetyl-sn-glycerol] | not observed | reduce the unfolded protein response (UPR) | without restoring a normal diunsaturated phospholipid composition |
